“Also recorded” adds a separate entry of the source.
Assays:
293T-HRE-GFP-luc cells = assay: Cell-based reporter assay for IC50 determinations; conditions: hypoxia 6 hrs (1% O2), luminescence, read-out: IC50 Classification
Summary of the method: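 IC50 comes from a four-parameter logistic fit of luminescence from HRE-GFP-luc 293T cells. Compounds (1:3 series, 1:50 medium dilution) were preincubated 30 min under normoxia, followed by 6 h at 1% O2, 5% CO2, 37 °C, before Steadylite luciferase detection.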

NB-1 cells = assay: Neuroblastoma cellular assay, cell numbers; type: cell-based; conditions: various concentrations
Text: (§1) NB-1, Gli56, and D423 cell lines are deleted for ENO-1 (GLI56 and D423) or PGD, which renders them with reduced glycolytic capacity (Muller, F. et al., Nature, 2012, 488, 337-42).

D423 cells = assay: Glioblastoma cellular assay, cell numbers; type: cell-based; conditions: various concentrations
Text: as §1

Gli56 cells = assay: Glioblastoma cellular assay, cell numbers; type: cell-based; conditions: various concentrations
Text: as §1

H460 xenografts = assay: H460 non-small cell lung cancer xenograft model; type: in vivo, mice
Protocol: H460 cells were implanted subcutaneously in CD-1 nude mice and treated with 150 mpk qdx14 PO of the compound of Example 2 delivered by oral gavage for 14 days. Animals were randomized into study groups and the study initiated when the average tumor volume was 400 mm^3. During treatment, tumor volume was measured three times per week to determine tumor growth over the course of the study (FIG. 6). Nine tumor bearing mice were included in each group. On day 15, 3 hours prior to take down, hypoxyprobe (Hypoxyprobe, Inc. cat # HP3) was injected into mice. Tumor sections were stained (dark areas) for the level of hypoxia utilizing an anti-hypoxyprobe antibody and standard IHC methods (FIG. 7). The same tumors were stained for the expression of HIF regulated gene carbonic anhydrase IX (CA9) using standard IHC methods (FIG. 8).

TMD8 cells = assay: Diffuse large B-cell lymphoma (DLBCL) assay, viable cells; type: cell-based; conditions: varying concentrations, 7 days, Guava ViaCount
Protocol: Diffuse Large B-Cell Lymphoma (DLBCL) Assay
Equal number of TMD8 cells were plated and treated with varying concentrations of the compound of Example 80 for 7 days. Percent of viable cells was determined using Guava ViaCount reagents (EMD Millipore cat #4000-0040) that contains proprietary dyes that enable the determination of the number of live and dead cells in a sample (FIG. 1).

OCI-AML3 cells = assay: Acute myeloid leukemia cell viability; type: cell-based; conditions: various concentrations, 2 days, normalized to DMSO control
Protocol: (§2) The OCI-AML3 cell line was treated with various concentrations of compound for 2 days and the percent of viable cells normalized to control cells treated with DMSO (FIG. 9). OCI-AML3 cells constitutively expressing luciferase were tail vein injected in NSG nude mice. 17 days after cell injection, luciferin was injected into animals and luciferase signal was measured using an IVIS imaging system to determine tumor burden and for randomization of subjects into study groups. On day 18, animals began receiving daily oral doses of vehicle or 10 mpk of the compound of Example 80 which continued throughout the study. On day 28, imaging was performed again to determine tumor burden (FIG. 10).

[1] = test system: OCI-AML3 models in NSG mice; assay: Human leukemia model, OCI-AML3 in NSG mice; type: in vivo; conditions: 10 mg/kg daily oral
Protocol: as §2

NB-1 xenografts = assay: NB-1 xenograft model; type: in vivo; conditions: daily oral 10 mg/kg (b1183 says 40 mpk), CD-1 nude mice
Protocol: To establish activity and provide in vivo proof of concept, NB-1 cells were implanted into CD-1 nude mice and treated with 40 mpk of the compound of Example 80 po or vehicle daily when tumors reached 400-500 mm^3. Tumor size was measured 3×/week using caliper measurements (FIG. 5).

| SMILES | IC50 (293T-HRE-GFP-luc cells) | other results |
| --- | --- | --- |
| Cc1nc(-c2nc(-c3ccc(OC(F)(F)F)cc3)no2)nn1Cc1ccnc(N2CCN(C)CC2)c1 [Example 2, 5-(5-Methyl-1-((2-(4-methylpiperazin-1-yl)pyridin-4-yl)methyl)-1H-1,2,4-triazol-3-yl)-3-(4-(trifluoromethoxy)phenyl)-1,2,4-oxadiazole] | < 0.1 µM | cell death in NB-1 cells (NB-1 cells): readily apparent; number of viable NB-1 cells (NB-1 cells): significantly reduced; also recorded: reduced number of viable cells; number of viable D423 cells (D423 cells): significantly reduced; also recorded: reduced number of viable cells; cell death in Gli56 cells (Gli56 cells): readily apparent; number of viable Gli56 cells (Gli56 cells): significantly reduced; tumor growth of H460 xenografts (H460 xenografts; 150 mg/kg daily oral for 14 days, CD-1 nude mice): inhibited the growth; also recorded: reduces the tumor growth; level of HIF regulated gene carbonic anhydrase IX (CAIX/CA9) in H460 xenografts (IHC) (H460 xenografts; 150 mg/kg daily oral, day 15): elimination of hypoxia and CA9 protein expression; also recorded: reduce the level of CAIX; level of hypoxia in H460 xenografts (hypoxyprobe IHC) (H460 xenografts; 150 mg/kg daily oral, day 15): elimination of hypoxia; also recorded: reduce the level of hypoxia |
| Cc1nc(-c2nc(-c3ccc(OC(F)(F)F)cc3)no2)nn1Cc1cccc(N2CCC(S(C)(=O)=O)CC2)c1 [Example 80, 4-Methanesulfonyl-1-{3-[(5-methyl-3-{3-[4-(trifluoromethoxy)phenyl]-1,2,4-oxadiazol-5-yl}-1H-1,2,4-triazol-1-yl)methyl]phenyl}piperidine] | < 0.1 µM | number/percent of viable TMD8 cells (TMD8 cells): respond robustly; also recorded: reduced number of viable cells; cell death in NB-1 cells (NB-1 cells): readily apparent; number of viable NB-1 cells (NB-1 cells): significantly reduced; also recorded: reduced number of viable cells; number of viable D423 cells (D423 cells): significantly reduced; also recorded: reduced number of viable cells; cell death in Gli56 cells (Gli56 cells): readily apparent; number of viable Gli56 cells (Gli56 cells): significantly reduced; also recorded: reduced number of viable cells; number of viable OCI-AML3 cells (OCI-AML3 cells): reduced number of viable cells; disease burden (tumor burden) by IVIS imaging [1]: reduces disease burden; survival ([1]; relative to vehicle): significantly increased their survival; also recorded: extends survival; tumor growth of NB-1 xenografts (NB-1 xenografts): reduces the tumor growth |
| Cc1nc(-c2nc(-c3ccc(OC(F)(F)F)cc3)no2)nn1Cc1ccnc(N2CCC(S(C)(=O)=O)CC2)c1 [Example 146, 2-(4-methanesulfonylpiperidin-1-yl)-4-[(5-methyl-3-{3-[4-(trifluoromethoxy)phenyl]-1,2,4-oxadiazol-5-yl}-1H-1,2,4-triazol-1-yl)methyl]pyridine] | < 0.1 µM | – |
| Cc1nc(-c2nc(-c3ccc(OC(F)(F)F)cc3)no2)nn1Cc1cccc(N2CCCS2(=O)=O)c1 [Example 147, 2-(3-((5-methyl-3-(3-(4-(trifluoromethoxy)phenyl)-1,2,4-oxadiazol-5-yl)-1H-1,2,4-triazol-1-yl)methyl)phenyl)isothiazolidine 1,1-dioxide] | < 0.1 µM | – |
| Cc1nc(-c2nc(-c3ccc(OC(F)(F)F)cc3)cs2)nn1Cc1cccc(N2CCN(C)CC2)c1 [Example 148, 1-methyl-4-{3-[(5-methyl-3-{4-[4-(trifluoromethoxy)phenyl]-1,3-thiazol-2-yl}-1H-1,2,4-triazol-1-yl)methyl]phenyl}piperazine] | < 0.1 µM | – |
| Cc1ccc(Cn2nc(-c3nc(-c4ccc(OC(F)(F)F)cc4)cs3)nc2C)cc1 [Example 149, 5-methyl-1-[(4-methylphenyl)methyl]-3-{4-[4-(trifluoromethoxy)phenyl]-1,3-thiazol-2-yl}-1H-1,2,4-triazole] | < 0.1 µM | – |
| COC(=O)c1cccc(Cn2nc(-c3nc(-c4ccc(OC(F)(F)F)cc4)cs3)nc2C)c1 [Example 150, methyl 3-[(5-methyl-3-{4-[4-(trifluoromethoxy)phenyl]-1,3-thiazol-2-yl}-1H-1,2,4-triazol-1-yl)methyl]benzoate] | 0.1 to 1 µM | – |
| Cc1nc(-c2nc(-c3ccc(OC(F)(F)F)cc3)cs2)nn1Cc1cccc(O)c1 [Example 151, 3-[(5-methyl-3-{4-[4-(trifluoromethoxy)phenyl]-1,3-thiazol-2-yl}-1H-1,2,4-triazol-1-yl)methyl]phenol] | 0.1 to 1 µM | – |
| Cc1nc(-c2ncc(-c3ccc(OC(F)(F)F)cc3)o2)nn1Cc1cccc(N2CCN(C)CC2)c1 [Example 152, 1-methyl-4-{3-[(5-methyl-3-{5-[4-(trifluoromethoxy)phenyl]-1,3-oxazol-2-yl}-1H-1,2,4-triazol-1-yl)methyl]phenyl}piperazine] | < 0.1 µM | – |
| Cc1nc(-c2ncc(-c3ccc(OC(F)(F)F)cc3)o2)nn1Cc1cccc(S(=O)(=O)N2CCOCC2)c1 [Example 153, 4-{3-[(5-methyl-3-{5-[4-(trifluoromethoxy)phenyl]-1,3-oxazol-2-yl}-1H-1,2,4-triazol-1-yl)methyl]benzenesulfonyl}morpholine] | 0.1 to 1 µM | – |
| Cc1ccc(Cn2nc(-c3ncc(-c4ccc(OC(F)(F)F)cc4)o3)nc2C)cc1 [Example 154, 5-methyl-1-[(4-methylphenyl)methyl]-3-{5-[4-(trifluoromethoxy)phenyl]-1,3-oxazol-2-yl}-1H-1,2,4-triazole] | 0.1 to 1 µM | – |
| COC(=O)c1cccc(Cn2nc(-c3ncc(-c4ccc(OC(F)(F)F)cc4)o3)nc2C)c1 [Example 155, methyl 3-[(5-methyl-3-{5-[4-(trifluoromethoxy)phenyl]-1,3-oxazol-2-yl}-1H-1,2,4-triazol-1-yl)methyl]benzoate] | 0.1 to 1 µM | – |
| Cc1nc(-c2ncc(-c3ccc(OC(F)(F)F)cc3)o2)nn1Cc1cccc(O)c1 [Example 156, 3-[(5-methyl-3-{5-[4-(trifluoromethoxy)phenyl]-1,3-oxazol-2-yl}-1H-1,2,4-triazol-1-yl)methyl]phenol] | 1 to 10 µM | – |
| Cc1nc(-c2ncc(-c3ccc(OC(F)(F)F)cc3)o2)nn1Cc1cccc(C(=O)N(C)C)c1 [Example 157, N,N-dimethyl-3-[(5-methyl-3-{5-[4-(trifluoromethoxy)phenyl]-1,3-oxazol-2-yl}-1H-1,2,4-triazol-1-yl)methyl]benzamide] | 0.1 to 1 µM | – |
| COCCOc1cccc(Cn2nc(-c3ncc(-c4ccc(OC(F)(F)F)cc4)o3)nc2C)c1 [Example 158, l-{[3-(2-methoxyethoxy)phenyl]methyl}-5-methyl-3-{5-[4-(trifluoromethoxy)phenyl]-1,3-oxazol-2-yl}-1H-1,2,4-triazole] | < 0.1 µM | – |
| Cc1nc(-c2ncc(-c3ccc(OC(F)(F)F)cc3)o2)nn1Cc1cccc(S(C)(=O)=O)c1 [Example 159, 1-[(3-methanesulfonylphenyl)methyl]-5-methyl-3-{5-[4-(trifluoromethoxy)phenyl]-1,3-oxazol-2-yl}-1H-1,2,4-triazole] | 0.1 to 1 µM | – |
| Cc1nc(-c2cc(-c3ccc(OC(F)(F)F)cc3)no2)nn1Cc1cccc(N2CCN(C)CC2)c1 [Example 160, 1-methyl-4-{3-[(5-methyl-3-{3-[4-(trifluoromethoxy)phenyl]-1,2-oxazol-5-yl}-1H-1,2,4-triazol-1-yl)methyl]phenyl}piperazine] | < 0.1 µM | – |
| Cc1nc(-c2cc(-c3ccc(OC(F)(F)F)cc3)no2)nn1Cc1ccnc(N2CCN(C)CC2)c1 [Example 161, 1-methyl-4-{4-[(5-methyl-3-{3-[4-(trifluoromethoxy)phenyl]-1,2-oxazol-5-yl}-1H-1,2,4-triazol-1-yl)methyl]pyridin-2-yl}piperazine] | < 0.1 µM | – |
| Cc1nc(-c2cc(-c3ccc(OC(F)(F)F)cc3)on2)nn1Cc1cccc(N2CCN(C)CC2)c1 [Example 162, 1-methyl-4-{3-[(5-methyl-3-{5-[4-(trifluoromethoxy)phenyl]-1,2-oxazol-3-yl}-1H-1,2,4-triazol-1-yl)methyl]phenyl}piperazine] | < 0.1 µM | – |
| Cc1nc(-c2cc(-c3ccc(OC(F)(F)F)cc3)on2)nn1Cc1ccnc(N2CCN(C)CC2)c1 [Example 163, 1-methyl-4-{4-[(5-methyl-3-{5-[4-(trifluoromethoxy)phenyl]-1,2-oxazol-3-yl}-1H-1,2,4-triazol-1-yl)methyl]pyridin-2-yl}piperazine] | < 0.1 µM | – |

From patent publication US10208059B2, “Heterocyclic modulators of HIF activity for treatment of disease” (Board of Regents, University of Texas System, priority 2012, dated 2019)
